The values that follow come from publication PMC5617230, “The single cyclic nucleotide-specific phosphodiesterase of the intestinal parasite Giardia lamblia represents a potential drug target” (PLoS Neglected Tropical Diseases, 2017).

Structures can show the parent of a compound that is named as a salt. Where two headings read alike, the source gives them in different places.

For experiment [1], the system named is G. lamblia WBC6 trophozoites. Briefly: G. lamblia trophozoite proliferation assay (resazurin). It counts as cell-based, Giardia lamblia. Conditions: for EC50: G. lamblia WBC6 trophozoites, 72 h anaerobic culture, read-out: Giardia cells EC50; for Effect on Giardia trophozoite proliferation: 50 μM inhibitor, 72 h culture, Fig 3B. How it is done: G. lamblia WBC6 (ATCC catalogue number 50803) trophozoites were grown under microaerophilic conditions in 11 ml culture tubes (Nunc, cat. 156758) containing TYI-S- 33 medium supplemented with 10% bovine serum and bovine bile according to standard protocols. Parasites were harvested by chilling the tubes on ice for 30 minutes to detach adherent cells and collected by centrifugation (900 x g, 10 minutes, 4°C). Encystation was induced using the two-step method as described previously by cultivating the trophozoites in bile-free medium for 44 hours and thereafter in medium (pH 7.85) containing porcine bile.
Test compounds were dissolved in DMSO and serially diluted in Giardia culture medium. G. lamblia WBC6 trophozoites were grown until adherent cells reached a confluency close to 100%. Cells were then chilled on ice for 20 min and adherent parasites were detached from the culture tube. Cultures were diluted to 5x10^3 cells/ml in growth medium (room temperature) and 100 μl aliquots were immediately added to wells of 96-well plates preloaded with the same volume of test compound dilutions. DMSO (solvent) controls were always included. Plates were incubated for 72 h at 37°C in a humid chamber with an anaerobic atmosphere. Adherent cells were then washed twice with 200 μl PBS before adding 200 μl of PBS containing […] resazurin and 1% glucose. After incubation for 4 h at 37°C, plates were read on a fluorescence plate reader (Wallac 1420 VICTOR^2, PerkinElmer) with excitation and emission wavelengths of 544 nm and 590 nm, respectively. Data were analyzed with the GraphPad Prism software package using a sigmoidal dose-response model for regression. All assays were done in quadruplicate and at least three independent experiments were performed.
(Alamar Blue is a resazurin reagent that responds to reducing activity.)

Experiment [2] deals with recombinant GlPDE(aa588-1371) (Giardia intestinalis, UniProt A0A644EZ75). Briefly: biochemical. It counts as biochemical. The conditions noted are these: for Activity against recombinant GlPDE in profiling assay: inhibitor at 100 μM, Fig 3A. From the text:
The DNA sequence comprising the catalytic domain (residues Gly-983 –Glu-1371) was amplified by PCR using genomic DNA of G. lamblia WBC6 and the primer pair GlPDE1cat-for (5'-[…]-3') and GlPDE1cat-rev (5'-[…]-3'). The PCR product was then cloned into the TA vector pCRII-TOPO (Invitrogen) yielding plasmid pCR-GlPDE1cat. To get a plasmid containing the sequence coding for the full length protein lacking the N-terminal transmembrane helices (Met-588 –Glu-1371) of GlPDE, a further PCR product was produced using the primer pair GlPDE1-Mfor (5'-[…]-3') and GlPDE1-LMrev (5'-[…]-3') and was cloned via NdeI (bold) and BsrGI into pCR-GlPDE1cat resulting in plasmid pCR-GlPDE1M. The inserts of both plasmid constructs were verified by sequencing and subcloned into two variants of the yeast expression vector pLT1 [42] using the restriction enzymes SalI (italic)/EcoRV or NdeI (bold)/EcoRV. The EcoRV cloning site originated from the multiple cloning site of the pCRII-TOPO vector. One pLT1 variant directs the expression of the Giardia protein alone, whereas the other adds an N-terminal hemagglutinin (HA) tag to allow detection of the recombinant protein. Transformation of the constructs into the PDE-deficient S. cerevisiae strain PP5 (MATa leu2-3 leu2- 112 ura3-52 his3-532 his4 cam pde1::URA3 pde2::HIS3) was carried out as described previously.
Yeast cell pellets were created exactly as described previously. Briefly, yeast was grown at 30°C in SC-leu medium to end log phase and thereafter again for 3.5 h in YPD to maximize protein expression. Washed cells were frozen in liquid nitrogen and stored at -70°C. Frozen cell pellets were thawed on ice and resuspended in an equal volume of ice-cold extraction buffer (50 mM HEPES, pH 7.5, 100 mM NaCl, 1x Complete protease inhibitor cocktail without EDTA (Roche Applied Science)). Cell lysates were produced by three passages through a high pressure homogenizer (French press at 20’000 psi, 4°C). Unbroken cells and cell debris were removed by centrifugation for 20 min at 16’000 RCF at 4°C. 25% glycerol was added to the cleared supernatant. Aliquots were snap-frozen in liquid nitrogen and stored at -70°C for subsequent PDE activity assays.
PDE activity was determined by a modification of the two-step procedure of Thompson and Appleman as described previously. In all reactions no more than 20% of the substrate was hydrolyzed. […] Inhibitors were dissolved and diluted in dimethyl sulfoxide (DMSO), with 1% final DMSO concentration in the reaction mixes. Control reactions with DMSO alone were always included. Data were analyzed using the GraphPad Prism software package (GraphPad, San Diego).

Experiment [3] relates to TbrPDEB1 and TbrPDEB2. Set-up: method as in PMID 22291195, PMID 22963052. The conditions noted are these: cited from earlier work.

By EC50 is commonly meant the concentration needed to bring the measured effect to its halfway point. In general, IC50 refers to the midpoint of a concentration-inhibition curve. In the case of `CCCCCC[C@@H]([C@@H](C)O)n1cnc2c(N)ncnc21` (racemic) [EHNA, erythro-9-(2-hydroxy-3-nonyl)adenine], the half-maximal effective concentration (EC50) in experiment [1] was more than 50 µM. Further, the IC50 in experiment [2] (read-out: Giardia PDE IC50) was more than 100 µM.
On the same counts, the results for `COCc1nc2c([nH]1)c(=O)n(C)c(=O)n2CC(C)C` [8'-MM-IBMX, 8-methoxymethyl-IBMX] are more than 50 µM and more than 100 µM.
Take `COc1ccc(Cc2nn3c([C@@H](CCCc4ccccc4)[C@@H](C)O)nc(C)c3c(=O)[nH]2)cc1OC` [BAY 60–7550]: the EC50 in experiment [1] is approximately 50 µM.
For `C[C@H](Cc1nc2c(cnn2-c2ccccc2Cl)c(=O)[nH]1)C(F)(F)F` [BAY 73–6691], the EC50 in experiment [1] is more than 50 µM. For the same compound, the IC50 in experiment [2] (read-out: Giardia PDE IC50) is more than 100 µM.
For the compound `Cc1ccc([N+](=O)[O-])cc1S(=O)(=O)N(C)C` [BRL 50481], the IC50 in experiment [2] (read-out: Giardia PDE IC50) was more than 100 µM.
`CN(C(=O)CCCOc1ccc2[nH]c(=O)ccc2c1)C1CCCCC1` [Cilostamide, cilostamide]: the EC50 in experiment [1] (Giardia duodenalis) is more than 50 µM. For the same compound, the IC50 in experiment [2] (read-out: Giardia PDE IC50) was more than 100 µM.
`OCCN(CCO)c1nc(N2CCCCC2)c2nc(N(CCO)CCO)nc(N3CCCCC3)c2n1` [Dipyridamole, dipyridamole]: in experiment [1] (Giardia duodenalis), the EC50 is more than 50 µM. In experiment [2], the IC50 came out at 26.3 µM and the “Activity against recombinant GlPDE in profiling assay” value (“Activity against recombinant GlPDE” for short) is recorded as “showed promising activity against GlPDE”.
In the case of `CCOC(=O)c1cnc2c(cnn2CC)c1NN=C(C)C` [Etazolate, etatolate], in experiment [1] (Giardia duodenalis), the EC50 was more than 50 µM. The IC50 in experiment [2] (read-out: Giardia PDE IC50) was approximately 100 µM.
Turning to `CC(C)Cn1c(=O)n(C)c(=O)c2[nH]cnc21` [IBMX, isobutyl-methyl-xanthine], the EC50 in experiment [1] (Giardia duodenalis) is more than 50 µM. For the same compound, in experiment [2] (read-out: Giardia PDE IC50), the IC50 was more than 100 µM.
As to `Cc1[nH]c(=O)c(C#N)cc1-c1ccncc1` [Milrinone, milrinone], the EC50 in experiment [1] (Giardia duodenalis) is more than 50 µM. In addition, the IC50 in experiment [2] was more than 100 µM.
For the compound `COc1cc2ncnc(N3CC[C@@H](Oc4cnc5ccccc5n4)C3)c2cc1OC` [NEU28], the EC50 in experiment [1] turned out to be 30.6 µM. Moreover, the IC50 in experiment [2] (read-out: Giardia PDE IC50) was approximately 100 µM.
As for `COc1ccc(C2=NN(C3CCCCCC3)C(=O)[C@@H]3CC=CC[C@H]23)cc1OCCCCOc1ccc(-c2nn[nH]n2)cc1` [NPD-001], the “Potency against trypanosomal PDEs” value in experiment [3] is recorded as “potencies in the nanomolar range”. For the same compound, in experiment [1], the “Effect on Giardia trophozoite proliferation” value (“Effect” for short) is “also inhibited Giardia trophozoite proliferation” and the EC50 turned out to be 6.9 µM. The “Activity against recombinant GlPDE” value in experiment [2] is “showed promising activity against GlPDE”. Also, the IC50 in experiment [2] (read-out: Giardia PDE IC50) came out at 0.8 µM.
Turning to `COc1ccc(Cc2nccc3cc(OC)c(OC)cc23)cc1OC` [Papaverine, papaverine], in experiment [1] (Giardia duodenalis), the EC50 was more than 50 µM. Moreover, in experiment [2], the IC50 is more than 100 µM.
`CC(=O)CCCCn1c(=O)c2c(ncn2C)n(C)c1=O` [Pentoxifylline, pentoxifylline]: the EC50 in experiment [1] (Giardia duodenalis) was more than 50 µM.
Take `COc1ccc(C(=O)Nc2c(Cl)cncc2Cl)cc1OC1CCCC1` [Piclamilast, piclamilast]: the “Effect” value in experiment [1] was “also inhibited Giardia trophozoite proliferation”. Moreover, the EC50 in experiment [1] (Giardia duodenalis) is 12 µM. In addition, in experiment [2], the IC50 was 11.3 µM and the “Activity against recombinant GlPDE” value is listed as “showed promising activity against GlPDE”.
As to `CCCCOc1cc(CC2CNC(=O)N2)ccc1OC` (stereo not drawn) [Ro20-1724], in experiment [1], the EC50 was more than 50 µM. Also, in experiment [2] (read-out: Giardia PDE IC50), the IC50 is more than 100 µM.
As for `O=C(Nc1c(Cl)cncc1Cl)c1ccc(OC(F)F)c(OCC2CC2)c1` [Roflumilast, roflumilast], the “Effect” value in experiment [1] was “also inhibited Giardia trophozoite proliferation”. Besides, the EC50 in experiment [1] (Giardia duodenalis) came to 7.4 µM. Also, in experiment [2], the IC50 turned out to be 6 µM and the “Activity against recombinant GlPDE” value is listed as “showed promising activity against GlPDE”.
For `COc1ccc(C2CNC(=O)C2)cc1OC1CCCC1` (stereo not drawn) [Rolipram, rolipram], the EC50 in experiment [1] (Giardia duodenalis) was more than 50 µM. Also, the IC50 in experiment [2] (read-out: Giardia PDE IC50) is more than 100 µM.
Consider `CCCc1nn(C)c2c(=O)[nH]c(-c3cc(S(=O)(=O)N4CCN(C)CC4)ccc3OCC)nc12` [Sildenafil, sildenafil citrate], for which the EC50 in experiment [1] (Giardia duodenalis) was more than 50 µM. The IC50 in experiment [2] was more than 100 µM.
For the compound `CN1CC(=O)N2[C@H](c3ccc4c(c3)OCO4)c3[nH]c4ccccc4c3C[C@@H]2C1=O` [Tadalafil, tadalafil], the EC50 in experiment [1] (Giardia duodenalis) is more than 50 µM. In addition, the IC50 in experiment [2] (read-out: Giardia PDE IC50) was more than 100 µM.
Regarding `COc1cc2c(cc1OC)-c1c/c(=N\c3c(C)cc(C)cc3C)n(C)c(=O)n1CC2` [Trequinsin, trequinsin], the EC50 in experiment [1] (Giardia duodenalis) is more than 50 µM. Moreover, the IC50 in experiment [2] was more than 100 µM.
On the same counts, the results for `CCOC(=O)C1=C[C@]2(CC)CCCN3CCc4c(n1c1ccccc41)[C@@H]32` [Vinpocetine, vinpocetine] are 16.3 µM and more than 100 µM.
Regarding `CCCOc1ccccc1-c1nc2nn[nH]c2c(=O)[nH]1` [Zaprinast, zaprinast], in experiment [1] (Giardia duodenalis), the EC50 is more than 50 µM. In addition, the IC50 in experiment [2] (read-out: Giardia PDE IC50) is more than 100 µM.
On to `COc1cc(-c2ccc(=O)[nH]n2)ccc1OC(F)F` [Zardaverine, zardaverine], for which the EC50 in experiment [1] (Giardia duodenalis) was more than 50 µM. The IC50 in experiment [2] was more than 100 µM.
Consider `Nc1nc2c(ncn2[C@@H]2O[C@@H]3COP(=O)(O)O[C@H]3[C@H]2O)c(=O)[nH]1` [cGMP], for which the “Acceptance as substrate by GlPDE” value in experiment [2] (recombinant GlPDE(aa588-1371)) is listed as “does not accept cGMP as a substrate”.
